Literature values as cited in US9937166B2 (INFLAMMATORY RESPONSE RESEARCH, INC., priority 2013, dated 2018).
Where two headings read alike, the source gives them in different places.

Tests used:
ALI/ARDS = details: in vivo
[1] = test system: histamine induced wheal and flare
[2] = test system: IL-4, IL-6, IL-8, ICAM-1, TLR3, NF-kappa B
[3] = in vivo
H1 receptor = H1 receptor (Homo sapiens, UniProt P35367); details: acidic pH, inflamed tissue
[4] = not given; remark: listed apart in the source
[5] = for Time to reach steady state level: administered orally
influenza = details: in vivo

Chain of H1 receptor (P35367 whole entry): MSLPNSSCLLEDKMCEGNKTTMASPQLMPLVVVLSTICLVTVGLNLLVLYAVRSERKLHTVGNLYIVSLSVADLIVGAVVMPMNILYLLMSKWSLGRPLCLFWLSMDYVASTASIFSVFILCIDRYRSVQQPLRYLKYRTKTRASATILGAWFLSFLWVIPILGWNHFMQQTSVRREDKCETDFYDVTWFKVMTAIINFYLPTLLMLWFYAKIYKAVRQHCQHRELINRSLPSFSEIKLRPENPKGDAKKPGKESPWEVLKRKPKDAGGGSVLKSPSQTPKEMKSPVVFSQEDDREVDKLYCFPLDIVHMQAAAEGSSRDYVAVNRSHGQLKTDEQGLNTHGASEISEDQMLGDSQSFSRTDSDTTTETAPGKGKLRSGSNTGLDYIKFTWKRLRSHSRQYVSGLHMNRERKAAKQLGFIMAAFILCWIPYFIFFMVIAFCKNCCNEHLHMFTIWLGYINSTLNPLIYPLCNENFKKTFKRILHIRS

## CC(=O)N[C@@H](CS)C(=O)O [N-acetylcysteine]
ALI/ARDS
  Outcome in large trials for ALI/ARDS: failed

## CCCCC[C@H](O)/C=C/[C@H]1[C@H](O)CC(=O)[C@@H]1CCCCCCC(=O)O [alprostadil]
ALI/ARDS
  Outcome in large trials for ALI/ARDS: failed

## CC(=O)N1CCN(c2ccc(OCC3COC(Cn4ccnc4)(c4ccc(Cl)cc4Cl)O3)cc2)CC1 (centres unmarked) [ketoconazole]
ALI/ARDS
  Outcome in large trials for ALI/ARDS: failed

## O=C(O)COCCN1CCN([C@H](c2ccccc2)c2ccc(Cl)cc2)CC1 [levocetirizine]
[1]; histamine induced wheal and flare data
  Potency among the five modern generation antihistamines: most potent
[1]; levocetirizine 5 mg per day vs fexofenadine 180 mg per day
  Effectiveness compared with fexofenadine: more effective
Eosinophil migration
  Eosinophil migration: decrease
[2]
  Inflammatory mediators IL-4, IL-6, and IL-8: decrease
[2]; in vivo (so in the source)
  ICAM-1, IL-6, IL-8, TLR3 expression and NF-kappa B activation: decrease
Airway epithelial cells
  Rhinovirus-induced ICAM-1 and cytokine expression and viral replication: inhibits
Higher doses
  Principal side effect experienced at higher doses: Sedation
humans
  Doses that can be safely administered: up to 30 mg/day
[3]
  Steady-state level (time to): 40 h
H1 receptor
  Enhanced receptor affinity over first generation mepyramine / first generation molecules: up to 5 ×
H1 receptor; listed as Levocetirizine
  Enhanced receptor affinity over first generation mepyramine / first generation molecules: 5 ×

## C[C@@H](O)CCCCn1c(=O)c2c(ncn2C)n(C)c1=O [lisofylline]
ALI/ARDS
  Outcome in large trials for ALI/ARDS: failed

## CC(C)(O)c1ccccc1CC[C@@H](SCC1(CC(=O)O)CC1)c1cccc(/C=C/c2ccc3ccc(Cl)cc3n2)c1 [montelukast]
[4]; adult patients for 22 weeks
  Doses without clinically important adverse experiences: up to 200 mg/day
[4]; short-term studies, approximately one week
  Doses without clinically important adverse experiences: up to 900 mg/day
[5]; IV 7 mg vs approved 10 mg oral tablet
  Plasma concentration area under the curve profile, IV vs oral tablet: comparable
[5]
  Time to reach steady state level: two
[5]; listed as Montelukast
  Time to reach steady state level: less than two
[5]; in vivo
  Absorption: rapidly absorbed
  Linear pharmacokinetics to dose: ≤ 50 mg
  Time to peak plasma concentration: 3 to 4 h
[5]; standard meal
  Effect of a standard meal on oral bioavailability and C.: not affected

## CCOC(=O)C1=C[C@@H](OC(CC)CC)[C@H](NC(C)=O)[C@@H](N)C1 [oseltamivir]
influenza
  Influenza related lower respiratory tract complications: did not appear to reduce

## O=C1N[C@H](C(=O)O)CS1 [procysteine]
ALI/ARDS
  Outcome in large trials for ALI/ARDS: failed
